Settings: Coaxial cylinder method

CCCCC [pentane]
Settings	thermal conductivity [W/m/K]
309.04 K, 260 kPa, Liquid	0.109
309.04 K, 261 kPa, Liquid	0.1092
309.04 K, 1000 kPa, Liquid	0.1095
309.04 K, 2000 kPa, Liquid	0.1101
309.04 K, 3012 kPa, Liquid	0.1108
309.04 K, 4151 kPa, Liquid	0.1118
309.04 K, 4297 kPa, Liquid	0.1117
309.04 K, 5604 kPa, Liquid	0.1123
309.04 K, 6001 kPa, Liquid	0.1125
309.04 K, 7000 kPa, Liquid	0.113
309.04 K, 8108 kPa, Liquid	0.1137
309.04 K, 9011 kPa, Liquid	0.1142
309.04 K, 10008 kPa, Liquid	0.1154
309.04 K, 11054 kPa, Liquid	0.1161
309.04 K, 12000 kPa, Liquid	0.1167
309.04 K, 12504 kPa, Liquid	0.1168
309.04 K, 13000 kPa, Liquid	0.1171
309.04 K, 14742 kPa, Liquid	0.1181
309.04 K, 19800 kPa, Liquid	0.1207
309.04 K, 19908 kPa, Liquid	0.1205
309.04 K, 20004 kPa, Liquid	0.1206
309.04 K, 24000 kPa, Liquid	0.1231
309.04 K, 25000 kPa, Liquid	0.1233
309.04 K, 28000 kPa, Liquid	0.1241
309.04 K, 29100 kPa, Liquid	0.1253
309.04 K, 29300 kPa, Liquid	0.1256
309.04 K, 34000 kPa, Liquid	0.1281
309.04 K, 35000 kPa, Liquid	0.1286
309.04 K, 38000 kPa, Liquid	0.1298
309.04 K, 39100 kPa, Liquid	0.1299
309.04 K, 39176 kPa, Liquid	0.13
309.04 K, 39350 kPa, Liquid	0.1304
309.04 K, 49940 kPa, Liquid	0.1352
309.04 K, 50230 kPa, Liquid	0.1353
309.04 K, 50800 kPa, Liquid	0.1352
315.55 K, 100 kPa, Gas	0.01635
331.2 K, 2097 kPa, Liquid	0.1035
331.2 K, 3000 kPa, Liquid	0.1041
331.2 K, 3500 kPa, Liquid	0.1045
331.2 K, 4000 kPa, Liquid	0.1046
331.2 K, 5000 kPa, Liquid	0.1053
331.2 K, 6000 kPa, Liquid	0.1061
331.2 K, 7000 kPa, Liquid	0.1068
331.2 K, 8000 kPa, Liquid	0.1069
331.2 K, 9000 kPa, Liquid	0.1072
331.2 K, 9500 kPa, Liquid	0.1077
331.2 K, 10000 kPa, Liquid	0.1078
331.2 K, 11000 kPa, Liquid	0.1085
331.2 K, 12000 kPa, Liquid	0.109
331.2 K, 13000 kPa, Liquid	0.1094
331.2 K, 15000 kPa, Liquid	0.1109
331.2 K, 16000 kPa, Liquid	0.1115
331.2 K, 17000 kPa, Liquid	0.1122
331.2 K, 18000 kPa, Liquid	0.1126
331.2 K, 19000 kPa, Liquid	0.1131
331.2 K, 20000 kPa, Liquid	0.1139
331.2 K, 21000 kPa, Liquid	0.1141
331.2 K, 22000 kPa, Liquid	0.1148
331.2 K, 24000 kPa, Liquid	0.1158
331.2 K, 25482 kPa, Liquid	0.1167
331.2 K, 26404 kPa, Liquid	0.1172
331.2 K, 27000 kPa, Liquid	0.1176
331.2 K, 30000 kPa, Liquid	0.1188
331.2 K, 31040 kPa, Liquid	0.1193
331.2 K, 31081 kPa, Liquid	0.1193
331.2 K, 32500 kPa, Liquid	0.1202
331.2 K, 33500 kPa, Liquid	0.1209
331.2 K, 34477 kPa, Liquid	0.1211
331.2 K, 35500 kPa, Liquid	0.1216
331.2 K, 36500 kPa, Liquid	0.1224
331.2 K, 37885 kPa, Liquid	0.1229
331.2 K, 38500 kPa, Liquid	0.1231
331.2 K, 39000 kPa, Liquid	0.1237
331.2 K, 39500 kPa, Liquid	0.1239
331.2 K, 40000 kPa, Liquid	0.1241
331.2 K, 41000 kPa, Liquid	0.1242
331.2 K, 42000 kPa, Liquid	0.1246
331.2 K, 43500 kPa, Liquid	0.1255
331.2 K, 44500 kPa, Liquid	0.1261
331.2 K, 45500 kPa, Liquid	0.1266
331.2 K, 47000 kPa, Liquid	0.1272
331.2 K, 48000 kPa, Liquid	0.1273

From the NIST ThermoML archive (doi:10.1016/j.fluid.2017.12.026)
